Measured values reported in patent US7514433B2, “1H-indole-6-yl-piperazin-1-yl-methanone derivatives” (Hoffmann-La Roche Inc., priority 2006, dated 2009).
Structures can show the parent of a compound that is named as a salt.

Each compound was assayed against T1, histamine 3 receptor (H3R) (Homo sapiens, UniProt Q9Y5N1) (assay: Binding assay with 3H-(R)α-methylhistamine (competition binding, membranes of the human HR3-CHO cell line)). Conditions: competition against 3H(R)α-methylhistamine (1 nM), Ki calculated from IC50 by the Cheng-Prusoff equation.
T1 construct: expressed in transfected cells; host or cells: CHO cells (HR3-CHO cell line), membranes
Experimental: Binding assay with ^3H-(R)α-methylhistamine
Saturation binding experiments were performed using HR3-CHO membranes prepared as described in Takahashi, K, Tokita, S., Kotani, H. (2003) J. Pharmacol. Exp. Therapeutics 307, 213-218.
An appropriate amount of membrane (60 to 80 μg protein/well) was incubated with increasing concentrations of ^3H(R)α-Methylhistamine di-hydrochloride (0.10 to 10 nM). Non specific binding was determined using a 200 fold excess of cold (R)α-Methylhistamine dihydrobromide (500 nM final concentration). The incubation was carried out at room temperature (in deep-well plates shaking for three hours). The final volume in each well was 250 μl. The incubation was followed by rapid filtration on GF/B filters (pre-soaked with 100 μl of 0.5% PEI in Tris 50 mM shaking at 200 rpm for two hours). The filtration was made using a cell-harvester and the filter plates were then washed five times with ice cold washing buffer containing 0.5 M NaCl. After harvesting, the plates were dried at 55° C. for 60 min, then we added scintillation fluid (Microscint 40, 40 microl in each well) and the amount of radioactivity on the filter was determined in Packard top-counter after shaking the plates for two hours at 200 rpm at room temperature.
Binding Buffer: 50 mM Tris-HCl pH 7.4 and 5 mM MgCl2×6H2O pH 7.4.
Washing Buffer: 50 mM Tris-HCl pH 7.4 and 5 mM MgCl2×6H2O and 0.5 M NaCl pH 7.4.
Indirect measurement of affinity of H3R inverse agonists: twelve increasing concentrations (ranging from 10 μM to 0.3 nM) of the selected compounds were always tested in competition binding experiments using membrane of the human HR3-CHO cell line. […]
All compounds were tested at a single concentration in duplicate. […] Ki's were calculated from IC50 based on Cheng-Prusoff equation (Cheng, Y, Prusoff, W H (1973) Biochem Pharmacol 22, 3099-3108): Ki=IC50/[1+D/Kd] wherein D is the concentration of the radioligand and Kd is the binding constant for the radioligand binding to the receptor under the conditions used in the competition experiment.

T1 sequence (Q9Y5N1 whole entry): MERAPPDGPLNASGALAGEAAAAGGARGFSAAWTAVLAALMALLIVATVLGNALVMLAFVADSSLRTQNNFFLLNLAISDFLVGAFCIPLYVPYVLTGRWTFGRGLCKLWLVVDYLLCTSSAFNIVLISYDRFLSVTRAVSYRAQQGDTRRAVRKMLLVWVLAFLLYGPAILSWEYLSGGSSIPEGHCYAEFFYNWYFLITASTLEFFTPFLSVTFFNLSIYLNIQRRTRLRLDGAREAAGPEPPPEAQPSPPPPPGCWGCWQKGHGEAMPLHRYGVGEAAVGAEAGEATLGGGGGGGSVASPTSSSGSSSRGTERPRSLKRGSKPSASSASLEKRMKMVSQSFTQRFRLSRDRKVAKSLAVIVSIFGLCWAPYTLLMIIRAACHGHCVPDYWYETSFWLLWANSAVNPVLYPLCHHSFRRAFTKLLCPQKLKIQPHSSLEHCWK

Row | Ki [nM] | Compound
1 | 24.3 | CC(C)CN1CCC(c2c[nH]c3cc(C(=O)N4CCN(C(C)C)CC4)ccc23)CC1 [Example 2, [3-(1-Isobutyl-piperidin-4-yl)-1H-indol-6-yl]-(4-isopropyl-piperazin-1-yl)-methanone; hydrochloride]
2 | 33.1 | CN1CCCC1c1c[nH]c2cc(C(=O)N3CCN(C4CCCC4)CC3)ccc12 (stereo not drawn) [Example 35, (4-Cyclopentyl-piperazin-1-yl)-[3-(1-methyl-pyrrolidin-2-yl)-1H-indol-6-yl]-methanone]
3 | 17.6 | CC(C)CN1CC=C(c2cn(-c3ccc(F)cc3F)c3cc(C(=O)N4CCN(C(C)C)CC4)ccc23)CC1 [Example 54, [1-(2,4-Difluoro-phenyl)-3-(1-isobutyl-1,2,3,6-tetrahydro-pyridin-4-yl)-1H-indol-6-yl]-(4-isopropyl-piperazin-1-yl)-methanone]
